According to patent US20150250864A1, “ANTI-CANCER VACCINES” (Board of Regents, The University of Texas System, priority 2012, published 2015):

Tests used:
[1] = test system: T cells from HLA A2+ normal donor; experiment: IFN-γ ELISPOT, T cells stimulated by 9-mer peptide pool-pulsed homologous B cells; type: cell-based, human
Source text: FIGS. 12A-B. Identification of HLA-A2 T-cell specific peptides using anti-human IFN-γ ELISPOT with T cells from one HLA A2^+ normal donor. (FIG. 12A) T cells, stimulated by peptide pool-pulsed homologous B cells three (3rd T cells) or four (4th T cells) times were reactive with two pools from a HERV-K HLA A2^+9-mer peptide library (pool #1-11 and pool #12-22). NP is no peptide control. (FIG. 12B) Photographs of actual plates for FIG. 12A.
FIGS. 13A-B. Identification of HLA-A2 T cell specific epitopes using anti-human IFN-γ ELISPOT. T cells obtained from PBMC stimulated by peptide pool-pulsed homologous B cells three (3rd T cells) or four (4th T cells) times, were reactive with individual peptides. (FIG. 13A) Image of ELISPOT. (FIG. 13B) The code of peptides evaluated in ELISPOT assays.
FIGS. 14A-C. Summary of number of ELISPOTs from each individual peptide. Numbers of spots detected (pool 1-11, pool 12-22, and pool 23-33) in ELISPOTS with a single peptide are shown. NP contains no peptide (as control). (FIG. 14A) Summary of number of ELISPOTs from each individual peptide including #1, #2, #3, #5, #6, #7, #8, and #9, and peptide pool #1 to #11. (FIG. 14B) Summary of number of ELISPOTs from each individual peptide including #12, #13, #14, #15, #17, #18, #19, #20, #22 and peptide pool #12 to #22. (FIG. 14C) Summary of number of ELISPOTs from each individual peptide including #23, #24, #25, #26, #27, #28, #30, #31, #32, #33, and peptide pool #23 to #33. 4th T cells indicated the T cells had been stimulated with peptide pool 4 times and 3rd T cells indicated the T cells had been stimulated with peptide pool 3 times.
The inventor used epitope mapping to identify responses to HERV-K peptides in breast cancer patients. They chemically synthesized a HERV-K env nine amino acid (9mer) peptide library (33 HLA A2 restricted peptides) and overlapping 15mer peptide library (144 peptides). Preliminary research has identified two pools from the HERV-K env 9mer peptide library that contain potential CD8+ epitopes, using interferon gamma (IFN-γ) enzyme-linked immunosorbent spot (ELISPOT) assay with T cells from one HLA A2^+ normal donor which was stimulated with the 9mer peptide pool-pulsed homologous dendritic cells (DCs).
HLA-2+ patients were identified by flow cytometry using anti-A2 antibody. Activated B cells were cultured from PBMCs stimulated with irradiated 3T3-CD40L-expressing fibroblasts. Normal donor CD8+ T-cell lines were obtained from PBMCs stimulated with autologous activated B cells pulsed with peptide pools (peptides are in 3 pools: #1-11, #12-22, and #23-33); the stimulation was repeated for 3-4 cycles. HERV-K specific T cells generated from normal donor lines were tested for peptide reactivity using IFN-γ ELISPOT assays (FIGS. 12A-B).

IVS cells = experiment: IFN-γ ELISPOT with IVS cells (DC pulsed once with HERV-K protein) against MAPs, 9-mer pools or single peptides; type: cell-based, human; conditions: donor 449731, IVS cells, FIG. 15C
Source text: FIGS. 15A-C. ELISPOT was employed to determine the production of IFN-γ in twelve 15-mer small pools. (FIG. 15A) Numbers of spots detected in multiple pools are shown for a breast cancer patient diagnosed with IDC (Acc 30) or a patient diagnosed with teratoma (Acc 32). (FIG. 15B) Numbers of spots detected in multiple pools are shown for a patient diagnosed with left breast minute foci of sugg papillary lesion (967092) or IDC (Acc 31). SP 1-12 represents small peptide pools #1-12. Pool 0 contains no peptides (as control). (FIG. 15C) T cells obtained from PBMC stimulated once with HERV-K-specific pulsed homologous B cells were reactive with individual MAPs, pools of 9-mer peptides, or single 9-mer peptides. NP: no peptide control.
IVS were obtained from two donor pairs stimulated with DC pulsed once with HERV-K protein. After 7 days (1-week stimulation), IVS cells were used for ELISPOT with 15-mer peptides (FIGS. 15A-B) or MAPs including MAP73, MAP75-76, MAP82-93, MAP 92-93, and MAP95-96 or 9 mer peptide pools (#1 to 5, #5 to 10, #1 to 10, #12 to 17, #18 to 22) or single peptides (#3, #18, and #4.11; FIG. 15C). Candidate epitopes (#4 and #11) were further identified using IVS generated from DC obtained from cancer patients stimulated with HERV-K antigen in this study.

Sequence	CD8 T epitope for HLA-A2 donors [1]	IFN-γ ELISPOT spots with individual peptide ([1]; T cell stimulated 3 times with peptide pool #12 to 22)	IFN-γ ELISPOT spots with individual peptide ([1]; T cell stimulated 4 times with peptide pool #12 to 22)	HERV-K specific T cell epitope (IFN-γ ELISPOT) (IVS cells)	IFN-γ ELISPOT spots with individual peptide ([1]; T cell stimulated 4 times with peptide pool #1 to 11)
IINLILILV [HERVK-18]	may be CD8 T epitopes	numerous spots	numerous spots	HERV-K specific T cell epitopes	
YMLVVGNIV [HERVK-3]	may be CD8 T epitopes			HERV-K specific T cell epitopes	numerous spots
